Values quoted from earlier work, collected in patent US20250099360A1 (Goodier Cosmetics, LLC, priority 2023, published 2025).

Test system: UV-B-induced lipid peroxidation
Conditions: UV-B radiation

effect on UV-B-induced lipid peroxidation: promotes UV-B-induced lipid peroxidation
Compound: CCCCCCCCCCCCCCCC(=O)OC[C@H](O)[C@H]1OC(=O)C(O)=C1O [ascorbyl palmitate]
